Measured values: ChEMBL document CHEMBL5104164, “Design, synthesis, and biological evaluation of pyrrolopyrimidine derivatives as novel Bruton's tyrosine kinase (BTK) inhibitors” (Eur J Med Chem, 2022)

Columns and labels:
Homo sapiens = species on record: Homo sapiens; test: Selectivity ratio for inhibition of BTK (unknown origin) over EGFR (unknown origin)
[1] = target: Tyrosine-protein kinase BTK (Homo sapiens, UniProt Q06187); test: Inhibition of BTK (unknown origin) measured by ADP-Glo assay
Sequence of Tyrosine-protein kinase BTK (Q06187 whole entry): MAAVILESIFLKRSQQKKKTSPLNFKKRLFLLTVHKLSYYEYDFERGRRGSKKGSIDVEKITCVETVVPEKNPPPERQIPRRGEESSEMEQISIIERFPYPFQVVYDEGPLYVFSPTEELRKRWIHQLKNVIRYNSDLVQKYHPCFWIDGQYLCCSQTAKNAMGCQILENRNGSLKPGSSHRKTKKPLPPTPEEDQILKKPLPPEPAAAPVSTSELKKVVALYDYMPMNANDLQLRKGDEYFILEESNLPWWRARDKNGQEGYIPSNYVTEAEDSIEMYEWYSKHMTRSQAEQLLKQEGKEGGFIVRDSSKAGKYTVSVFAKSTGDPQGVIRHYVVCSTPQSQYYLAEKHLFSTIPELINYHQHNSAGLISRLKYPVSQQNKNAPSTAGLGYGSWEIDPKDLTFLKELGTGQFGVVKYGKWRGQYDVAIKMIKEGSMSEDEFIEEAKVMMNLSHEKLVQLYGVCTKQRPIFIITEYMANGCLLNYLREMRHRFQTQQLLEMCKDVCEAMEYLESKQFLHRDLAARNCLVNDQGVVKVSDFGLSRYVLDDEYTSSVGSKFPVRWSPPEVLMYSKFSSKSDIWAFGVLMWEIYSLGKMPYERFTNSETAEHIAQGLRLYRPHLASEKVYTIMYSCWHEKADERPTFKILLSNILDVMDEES

TMD8 [2] = test: Antiproliferative activity against human TMD8 cells incubated for 72 hrs by CellTiter-Glo assay; details: TMD8, 72 h
SU-DHL-6 = test: Antiproliferative activity against human SU-DHL-6 cells incubated for 72 hrs by CellTiter-Glo assay; assay type: functional, cell-based; details: SU-DHL-6, 72 h
DOHH-2 = test: Antiproliferative activity against human DOHH-2 cells incubated for 72 hrs by CellTiter-Glo assay; assay type: functional, cell-based; details: DOHH-2, 72 h
Pfeiffer = test: Antiproliferative activity against human Pfeiffer cells incubated for 72 hrs by CellTiter-Glo assay; assay type: functional, cell-based
TMD8 [3] = test: Antitumor activity against human TMD8 cells xenografted in female CB-17 SCID nude mouse assessed as tumor growth inhibition at 25 mg/kg, po administered twice daily for 21 days; assay type: functional; details: TMD8, 504 h, time 21 day, read-out: TGI
Ramos = test: Antiproliferative activity against human Ramos cells incubated for 72 hrs by CellTiter-Glo assay; assay type: functional, cell-based
SUD4 = test: Antiproliferative activity against human SU-DHL-4 cells incubated for 72 hrs by CellTiter-Glo assay; assay type: functional, cell-based; details: SU-DHL-4, 72 h
[4] = Antiproliferative activity against human MINO cells incubated for 72 hrs by CellTiter-Glo assay; assay type: functional, cell-based
OCI-Ly3 = test: Antiproliferative activity against human OCILY3 cells incubated for 72 hrs by CellTiter-Glo assay; assay type: functional, cell-based; details: OCI-Ly3, 72 h
[5] = Toxicity in female CB-17 SCID nude mouse xenografted with human TMD8 cells assessed as effect on body weight at 25 mg/kg, po administered twice daily for 21 days; assay type: organism-based; details: in vivo, 504 h, time 21 day
Rec1 = test: Antiproliferative activity against human REC1 cells incubated for 72 hrs by CellTiter-Glo assay; assay type: functional, cell-based; details: Rec1, 72 h
Raji = test: Antiproliferative activity against human Raji cells incubated for 72 hrs by CellTiter-Glo assay; assay type: functional, cell-based

Compound | IC50 [1] | IC50 (TMD8 [2]) | further results
C=CC(=O)N1CCC([C@@H]2CCNc3c(C(N)=O)c(-c4ccc(Oc5ccccc5)cc4)nn32)CC1 |  |  | Selectivity ratio (Homo sapiens): 8.7
C=CC(=O)N1CC=C(c2c[nH]c3ncnc(-c4ccc(CNC(=O)Nc5ccccc5)c(F)c4)c23)CC1 | 0.8 nM | 12.1 nM | 
C=CC(=O)N1CCC(CNc2ncnc3[nH]cc(C(=O)N4CC(Oc5ccccc5)C4)c23)CC1 | 0.6 nM | 24.4 nM | 
CC#CC(=O)N1CCC(CNc2ncnc3[nH]cc(C(=O)N4CC(Oc5ccccc5)C4)c23)CC1 | 16.4 nM |  | 
CC#CC(=O)N1CCC(c2c[nH]c3ncnc(-c4ccc(CNC(=O)c5ccc(C(C)(C)C)cc5)c(C)c4)c23)CC1 | 1.4 nM |  | 
C=CC(=O)N1CCC(CNc2ncnc3[nH]cc(C(=O)N4CC(Oc5ccc6ccccc6c5)C4)c23)CC1 | 1.4 nM | 28 nM | 
CC#CC(=O)N1CCC(c2c[nH]c3ncnc(-c4ccc(CNC(=O)c5ccc(C(C)(C)C)cc5)cc4)c23)CC1 | 2.2 nM |  | 
C=CC(=O)N1CCC(CNc2ncnc(N)c2-c2ccc(Oc3ccccc3)cc2)CC1 [EVOBRUTINIB] |  | 56.2 nM | 
C=CC(=O)N1CCC(CNc2ncnc3[nH]cc(C(=O)Nc4ccccc4)c23)CC1 | 98.7 nM |  | 
CC#CC(=O)N1CC=C(c2c[nH]c3ncnc(-c4ccc(CNC(=O)Nc5ccccc5)c(F)c4)c23)CC1 | 1.4 nM | 7.2 nM | 
CC#CC(=O)N1CC=C(c2c[nH]c3ncnc(-c4ccc(CNC(=O)c5ccc(C6CC6)cc5)c(F)c4)c23)CC1 | 1.9 nM | 1.2 nM | 
C=CC(=O)NCCNc1ncnc2[nH]cc(C(=O)N3CC(Oc4ccccc4)C3)c12 | 92.9 nM |  | 
C=CC(=O)N1CC=C(c2c[nH]c3ncnc(-c4ccc(CNC(=O)c5ccc(C(C)(C)C)cc5)cc4)c23)CC1 | 2.5 nM |  | 
C=CC(=O)N1CCC(CNc2ncnc3[nH]cc(C(=O)N4CC(OCc5ccccc5)C4)c23)CC1 | 2 nM | 30.7 nM | 
C=CC(=O)N1CCC(c2c[nH]c3ncnc(-c4ccc(CNC(=O)c5ccc(C(C)(C)C)cc5)c(F)c4)c23)CC1 | 1.9 nM |  | 
C=CC(=O)N1CCCC(Nc2ncnc3[nH]cc(C(=O)N4CC(Oc5ccccc5)C4)c23)C1 (configuration not stated) | 1.9 nM | 454 nM | 
CCOc1cc2ncc(C#N)c(Nc3ccc(OCc4ccccn4)c(Cl)c3)c2cc1NC(=O)/C=C/[C@H]1CCCN1C [PYROTINIB] | 31.7 nM |  | 
C=CC(=O)N1CC=C(c2c[nH]c3ncnc(-c4ccc(CNC(=O)c5ccc(C6CC6)cc5)c(F)c4)c23)CC1 | 1.2 nM | 0.8 nM | 
C=CC(=O)N1CCC(CNc2ncnc3[nH]cc(C(=O)N4CC(Oc5cccc(C(F)(F)F)c5)C4)c23)CC1 | 1.6 nM | 22.4 nM | 
CC#CC(=O)N1CC=C(c2c[nH]c3ncnc(-c4ccc(CNC(=O)c5ccc(C(C)(C)C)cc5)cc4)c23)CC1 | 11.1 nM |  | 
C=CC(=O)N1CCC[C@@H](n2nc(-c3ccc(Oc4ccccc4)cc3)c3c(N)ncnc32)C1 [IBRUTINIB] |  | 2.7 nM | IC50 (SU-DHL-6): 1500 nM; IC50 (DOHH-2): 506 nM; IC50 (Pfeiffer): 1650 nM; inhibition in vivo at 25 mg/kg (TMD8 [3]): 103%; IC50 (Ramos): 2090 nM; IC50 (SUD4): 804 nM; IC50 [4]: > 10000 nM; IC50 (OCI-Ly3): > 10000 nM; Activity [5]: Non-Toxic; IC50 (Rec1): 0.8 nM; IC50 (Raji): > 10000 nM
C=CC(=O)N1CC=C(c2c[nH]c3ncnc(-c4ccc(CNC(=O)c5ccc(C(C)(C)C)cc5)c(F)c4)c23)CC1 | 1.3 nM | 3.4 nM | 
CC#CC(=O)N1CC=C(c2c[nH]c3ncnc(-c4ccc(CNC(=O)c5ccc(C(C)(C)C)cc5)c(C)c4)c23)CC1 | 1.1 nM | 1.7 nM | 
C=CC(=O)N1CCC(CNc2ncnc3[nH]cc(C(=O)N4CC(Oc5cccc(C)c5)C4)c23)CC1 | 0.5 nM | 15.6 nM | 
